Experiments:
[1] = system: Aldehyde dehydrogenase (ALDH); assay: Aldehyde Dehydrogenase (ALDH) assay, ELISA kit; assay type: cell-based; conditions: MDAMB231, 48 hrs
Source text: Aldehyde dehydrogenases (ALDH) are a family of enzymes that catalyze the metabolism of exogenous and endogenous aldehydes, preventing the accumulation of potentially reactive and toxic aldehydes and their metabolites. In addition to their role in aldehyde metabolism, ALDH enzymes also play critical roles in other cellular processes such as cell proliferation, differentiation, and survival. ALDH also serves as a marker for certain stem cell populations including hematopoietic stem cells and certain cancer stem cells. ALDH concentration was determined by using ([…] Dx) ELISA kit by following protocol: • 1 Standards (50 μl)/sample (40 μl) were added to the respective wells, (except Blank). • 2. (10 μl) Antibody-Biotin conjugate was then added in each sample well (except Blank). • 3. (50 μl) of Horse Radish Peroxidase (HRP) Conjugate was then added to each well (except Blank). • 4. The plates were incubated for one hour at 37° C. in the incubator. • 5. Wash (4 times with wash buffer) and blot residual buffer by firmly tapping the plate on the absorbent paper. Wipe off any liquid from the bottom of the microtiter wells as any residue can interfere in the reading step. • 6. Add TMB substrate A (50 μl) and then TMB substrate B (50 μl) to each well including Blank as well. • 7. Incubate for 10 mins at 37° C. in dark. • 8. Add (50 μl) stop solution. Wells should turn from blue to yellow. • 9. Read absorbance at 450 nm. • 10 A X-Y graph of concentration vs optical density was plotted. ALDH concentration was calculated by substituting optical density values in the regression analysis equation.

PC3 [2] = assay: Wound Healing Assay (WHA), prostate cancer cell line; assay type: cell-based; conditions: IC10 conc. of compound
Method: (§1) Wound Healing Assay (WHA) determines the ability of cancer stem cells to heal the wound formed in a confluent monolayer.
(§2) Procedure: 0.35×10^6 cells were plated in each well of 6 Tissue Culture well plates. The plate was incubated for 48 hrs at 37° C., 5% CO2. […] IC10 conc. of the respective compound was added into each well. The plates were incubated at 37° C., 5% CO2 and the width of scratch was measured at various time intervals such as 6, 24 and 48 hours. Average of 3 distances were taken for each time point using IS camera Measure. A plot of average width of scratch in micrometer was plotted against the time interval after treatment.

PC3 [3] = assay: In vitro sphere-forming assay (cancer stem cells), Prostosphere media; conditions: for 3D sphere count of PC3: Prostosphere media, 2000 cells/well, n = 6 ± S.D
PC3 [4] = assay: Soft agar colony-formation assay, prostate cancer; assay type: cell-based; conditions: for anticancer activity in comparison with cisplatin, soft agar, prostate cancer cell line: FIG. 52, PC3; for IC50: Homo sapiens, PC-3, 168 h, Soft Agar Assay, 1 week, Alamar Blue
Method in brief: (§3)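 Cells were plated in soft agar with drug over an agar base layer and grown 1 week at 37 °C/5% CO2, with feeding on day 3. Colonies were quantified with Alamar Blue (24 h, 37 °C) by absorbance at 630 nm. Log % viability was plotted against log drug concentration.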

Human lymphocytes = assay: Lymphocyte assay (MTT on normal cells); assay type: cell-based; conditions: human peripheral blood lymphocytes, MTT procedure; for IC50: Lymphocyte
Method in brief: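 Lymphocytes from human peripheral blood isolated by density-gradient centrifugation on HiSep LSM 1077, washed in D.P.B.S; only cells with purity and viability above 95% used. Seeded at 0.7 million/ml and assessed by MTT.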

MDAMB231 [5] = assay: In vitro sphere-forming assay (cancer stem cells), Mammosphere media; conditions: for 3D sphere count of MDAMB231: Mammosphere media, 2000 cells/well, n = 6 ± S.D
Method: In Vitro Sphere-forming Assay: Sphere assay measures the ability of cancer stem cells (CSCs) to form spheres in specially designed serum-free medium.
Mammosphere Media Preparation (For 100 mL): 1 g methyl cellulose autoclaved with magnetic stirrer, 100 ml plain media (MEBM) was added and dissolved under magnetic stirring. After complete dissolution FGF-80 μL, EGF-40 μL, Penstrep-1 mL, Heparin-400 μL was added.
Procedure—The cells were trypsinised and made into single-cell suspension by passing through cell strainers (100 μl and 40 μl, respectively), The cells were diluted at a concentration of 2000 cells/100 μL and suspended in either Mammosphere (for breast cell lines) or Prostosphere (for prostate cell lines). 100 μL of this suspension was added into each well of 96-well suspension plates and incubated at 37° C., 5% CO2 for 24 hrs. Appropriate concentrations of the drugs (2 μL) were added into respective wells with 100 μL of stem cell culture medium. Plates were incubated at 37° C., 50 CO2 for 72 hrs. After incubation, 2.5 μL of the respective drug concentration and 50 μL of stem cell culture medium were added into each well and the plates were further incubated at 37° C., 50% CO2 for 72 hrs. 3 μL of the respective drug concentration was added with 50 μL of stem cell culture medium again after incubation and plates were reincubated for 72 hrs at 37° C., 50 CO2. Number of primary spheres formed for each concentration were counted. The spheres were converted to 0 viability of spheres compared to untreated (Growth Control with DMSO, GCD).

MDAMB231 [6] = assay: Soft agar colony-formation assay, breast cancer; assay type: cell-based; conditions: for anticancer activity in comparison with cisplatin, soft agar, breast cancer cell line: FIG. 51, MDAMB231; for IC50: Homo sapiens, MDA-MB-231, 168 h, Soft Agar Assay, 1 week, Alamar Blue
Method in brief: as §3

MDAMB231 [7] = assay: Wound Healing Assay (WHA), breast cancer cell line; assay type: cell-based; conditions: IC10 conc. of compound
Method: as §1, §2

[8] = Homo sapiens, PC-3, read-out: % Viability of spheres (PC3)
[9] = Homo sapiens, MDA-MB-231, read-out: % Viability of spheres (MDAMB231)

| SMILES | % inhibition of ALDH on Breast Cancer Cell line (MDAMB231) after 48 hrs [1] [%] | % inhibition of Wound Healing for Prostate Cancer Cell line (PC3) after 48 hrs (PC3 [2]) [%] | viability at 0.025 µM (PC3 [3]; [8]) [%] | viability at 0.25 µM (PC3 [3]; [8]) [%] | viability at 2.5 µM (PC3 [3]; [8]) [%] | viability at 25 µM (PC3 [3]; [8]) [%] | 3D sphere count of PC3 (PC3 [3]; drug 0.025 uM) | 3D sphere count of PC3 (PC3 [3]; drug 0.25 uM) | 3D sphere count of PC3 (PC3 [3]; drug 2.5 uM) | 3D sphere count of PC3 (PC3 [3]; drug 25 uM) | anticancer activity in comparison with cisplatin, soft agar, prostate cancer cell line (PC3 [4]) | IC50 (PC3 [4]) [nM] | viability at 0.025 µM (MDAMB231 [5]; [9]) [%] | viability at 0.25 µM (MDAMB231 [5]; [9]) [%] | viability at 2.5 µM (MDAMB231 [5]; [9]) [%] | viability at 25 µM (MDAMB231 [5]; [9]) [%] | 3D sphere count of MDAMB231 (MDAMB231 [5]; drug 0.025 uM) | 3D sphere count of MDAMB231 (MDAMB231 [5]; drug 0.25 uM) | 3D sphere count of MDAMB231 (MDAMB231 [5]; drug 2.5 uM) | 3D sphere count of MDAMB231 (MDAMB231 [5]; drug 25 uM) | also measured |
| --- | --- | --- | --- | --- | --- | --- | --- | --- | --- | --- | --- | --- | --- | --- | --- | --- | --- | --- | --- | --- | --- |
| COc1ccc(NC2=CC(=O)c3c(OCCN4CCOCC4)cccc3C2=O)cc1OC [Formula 40, 5-(2-morpholinoethoxy)-2-(3,4-dimethoxyphenylamino) naphthalene-1,4-dione] | 62.73 | 48.56 | 65 | 47 | 34 | 17 | 57(±3) | 41(±3) | 30(±3) | 15(±3) | higher anticancer activity in comparison with cisplatin | 422 | 56 | 41 ± 4 | 27 | 10 | 43(±3) | 32(±4) | 21(±3) | 8(±2) | viability at 0.0025 µM (PC3 [3]; [8]): 80%; 3D sphere count of PC3 (PC3 [3]; drug 0.0025 uM): 70(±5); IC50 (Human lymphocytes): 13200 nM; viability at 0.0025 µM (MDAMB231 [5]; [9]): 78%; 3D sphere count of MDAMB231 (MDAMB231 [5]; drug 0.0025 uM): 60(±3); anticancer activity in comparison with cisplatin, soft agar, breast cancer cell line (MDAMB231 [6]): higher anticancer activity in comparison with cisplatin; IC50 (MDAMB231 [6]): 353 nM; % inhibition of Wound Healing for Breast Cancer Cell line (MDAMB231) after 48 hrs (MDAMB231 [7]): 45.84% |
| O=C1C(NC2CCCCC2)=CC(=O)c2c(OCCN3CCOCC3)cccc21 [Formula 52] | 74.69 | 34.7 | 77 | 62 | 49 | 30 | 63(±4) | 51(±3) | 40(±4) | 25(±3) | higher anticancer activity in comparison with cisplatin | 3270 | 50 | 45 | 38 | 26 | 55(±7) | 43(±3) | 34(±4) | 24(±3) | viability at 0.0025 µM (PC3 [3]; [8]): 87%; 3D sphere count of PC3 (PC3 [3]; drug 0.0025 uM): 71(±3); Activity on Lymphocytes (IC50) (Human lymphocytes): No activity; viability at 0.0025 µM (MDAMB231 [5]; [9]): 62%; 3D sphere count of MDAMB231 (MDAMB231 [5]; drug 0.0025 uM): 69(±3); anticancer activity in comparison with cisplatin, soft agar, breast cancer cell line (MDAMB231 [6]): higher anticancer activity in comparison with cisplatin; IC50 (MDAMB231 [6]): 3880 nM; % inhibition of Wound Healing for Breast Cancer Cell line (MDAMB231) after 48 hrs (MDAMB231 [7]): 37.42% |
| O=C1C(c2ccc3c(c2)OCO3)=CC(=O)c2c(OCCCCN3CCOCC3)cccc21 [Formula 2, 5-(4-morpholinobutoxy)-2-(benzo[d][1,3]dioxol-6-yl)naphthalene-1,4-dione] | 76.09 | 45.25 | 77 | 65 | 39 | 21 | 63(±4) | 53(±3) | 32(±4) | 17(±3) | higher anticancer activity in comparison with cisplatin | 2650 | 84 | 66 | 46 | 30 | 65(±5) | 51(±3) | 36(±3) | 23(±3) | viability at 250 µM (PC3 [3]; [8]): 10%; 3D sphere count of PC3 (PC3 [3]; drug 250 uM): 8(±2); IC50 (Human lymphocytes): 11500 nM; viability at 250 µM (MDAMB231 [5]; [9]): 14%; 3D sphere count of MDAMB231 (MDAMB231 [5]; drug 250 uM): 11(±3); anticancer activity in comparison with cisplatin, soft agar, breast cancer cell line (MDAMB231 [6]): higher anticancer activity in comparison with cisplatin; IC50 (MDAMB231 [6]): 2080 nM; % inhibition of Wound Healing for Breast Cancer Cell line (MDAMB231) after 48 hrs (MDAMB231 [7]): 53.69% |
